Results taken from patent EP4567040A1, “CRYSTAL FORM OF FUSED TRICYCLIC DERIVATIVE AND PREPARATION METHOD” (Jiangsu Hengrui Pharmaceuticals Co., Ltd., priority 2022, dated 2024).

Key:
CYP1A2 = biological target: T1, CYP1A2 (Homo sapiens, UniProt P05177); experiment: biochemical
T1 sequence (P05177 1-516): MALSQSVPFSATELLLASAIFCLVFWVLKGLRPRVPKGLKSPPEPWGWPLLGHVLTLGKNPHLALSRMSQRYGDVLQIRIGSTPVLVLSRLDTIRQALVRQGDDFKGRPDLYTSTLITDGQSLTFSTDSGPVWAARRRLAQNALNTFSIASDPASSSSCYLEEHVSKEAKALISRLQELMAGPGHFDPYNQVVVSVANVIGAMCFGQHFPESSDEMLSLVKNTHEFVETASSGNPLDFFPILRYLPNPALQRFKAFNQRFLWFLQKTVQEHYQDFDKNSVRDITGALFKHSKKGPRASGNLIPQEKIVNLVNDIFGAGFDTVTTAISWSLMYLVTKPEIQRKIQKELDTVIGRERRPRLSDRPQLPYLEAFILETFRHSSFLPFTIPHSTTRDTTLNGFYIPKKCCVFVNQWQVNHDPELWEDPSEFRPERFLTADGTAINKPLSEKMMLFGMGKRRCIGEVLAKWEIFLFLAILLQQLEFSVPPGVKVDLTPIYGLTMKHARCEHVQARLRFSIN
Experimental: (§3) The effects of different concentrations of the test compounds on the metabolic reactions of phenacetin (CYP1A2), diclofenac sodium (CYP2C9), S-mephenytoin (CYP2C19), bufuralol hydrochloride (CYP2D6), and midazolam (CYP3A4/5) were assessed by liquid chromatography-tandem mass spectrometry (LC/MS/MS).
(§4) Then, 200 µL of an acetonitrile solution containing 3% formic acid and 40 nM internal standard verapamil was added, and the mixture was centrifuged at 4000 rpm for 50 min. The mixture was cooled on ice for 20 min and centrifuged at 4000 rpm for 20 min to precipitate protein. 200 µL of the supernatant was taken for LC/MS/MS analysis.
(§5) The peak area was calculated based on the chromatogram. The residual activity proportion (%) was calculated using the following formula: peak area ratio = peak area of metabolite / peak area of internal standard [formula]
(§6) The half maximal inhibitory concentrations (IC50) against CYP were calculated using Excel XLfit 5.3.1.3.

CDK6/CyclinD3 = biological target: T2, CDK6/CyclinD3 (Homo sapiens, UniProt Q00534); experiment: Kinase activity assay, mobility shift assay (CDK6/CyclinD3); assay type: biochemical; conditions: Table 18; read-out: CDK6/D3 IC50
T2 construct: purchased Carna 04-107
Experimental: (§1) In vitro CDK kinase activity was tested using a mobility shift assay. […] A proper amount of kinase was added to the 1× kinase buffer to prepare a 2.5× enzyme solution. 5× compound dilutions (1× kinase buffer, 10% DMSO) corresponding to the test concentrations of the compounds were prepared. […] 5 µL of 5× compound dilution and 10 µL of 2.5× enzyme solution were added to reaction wells of a 384-well reaction plate. After thorough mixing, the plate was incubated at room temperature for 10 min. […] The reaction plate was incubated at 28 °C for 60 min (biochemical incubator model: SPX-100B-Z). 30 µL of stop solution was added to the 384-well reaction plate to stop the reactions, and the plate was centrifuged at 1000 rpm for 1 min.
(§2) IC50 values for the compounds were obtained by fitting using XLFit excel add-in version 5.4.0.8. Fitting formula: Y = Bottom + (Top−Bottom)/(1+((IC50/X))^(∧)HillSlope). [formula]

CYP3A4 = CYP3A4 (Homo sapiens, UniProt P08684); experiment: CYP inhibition assay in pooled human liver microsomes (CYP3A4, midazolam); assay type: in vitro ADME; conditions: pH 7.4, probe midazolam (3 µM), 37 °C, read-out: CYP 3A4 half maximal inhibitory concentration (IC50)
CDK4/CyclinD1 = biological target: T3, CDK4/CyclinD1 (Homo sapiens, UniProt P11802); experiment: Kinase activity assay, mobility shift assay (CDK4/CyclinD1); assay type: biochemical; conditions: Table 18; read-out: CDK4/D1 IC50
T3 construct: purchased ProQinase 0142-0143-1
Experimental: as §1, §2

CYP2C19 = CYP2C19 (Homo sapiens, UniProt P33261); experiment: biochemical
Experimental: as §3, §4, §5, §6

CDK9/CyclinT1 = biological target: T4, CDK9/CyclinT1 (Homo sapiens, UniProt P50750); experiment: Kinase activity assay, ADP-Glo (CDK9/CyclinT1); assay type: biochemical; conditions: Table 18; read-out: CDK9/T1 IC50
T4 construct: purchased Wuxi Biortus BP480/792/691
Experimental: The starting concentration for the in vitro CDK (CDK2 and CDK9) kinase activity assay was 1 µM and was 3-fold diluted to a total of 10 concentrations, and each concentration was tested in duplicate. The compound PHA-793887 was used as a control compound.
A 1× kinase reaction buffer (40 mM Tris-HCl, pH 7.4, 20 mM […], 0.1 mg/mL BSA, 50 µM DTT), 1 volume of 5× kinase reaction buffer, and 4 volumes of water were prepared, and DTT (final concentration: 50 µM) was added. 50 nL of diluted compound working solution (final concentration of DMSO: 1%) was transferred to each well of a reaction plate (784075, Greiner) using Echo655. The reaction plate was sealed with a plate sealing film and centrifuged at 1000 g for 1 min. 2× enzyme (0.3 ng/µL CDK2/CyclinE1 or CDK9/CyclinT1) was prepared using the 1× kinase reaction buffer. 2.5 µL of the above kinase solution was added to each well. The reaction plate was sealed with a plate sealing film, centrifuged at 1000 g for 1 min, and left to stand at room temperature for 10 min. A mixture of 2× kinase substrate and ATP was prepared using the 1× kinase reaction buffer. 2× CDK2/CylinE1 kinase substrate was 0.4 mg/mL Histone H1 and 30 µM ATP. 2.5 µL of the mixture of 2× Histone H1 and ATP was added to the reaction plate. The plate was centrifuged at 1000 g for 30 s, and the reaction was started. […] The luminescence signals were obtained using Envision 2104. […]

CYP2C9 = CYP2C9 (Homo sapiens, UniProt P11712); experiment: biochemical
Experimental: as §3, §4, §5, §6

CDK1/CyclinB = biological target: T5, CDK1/CyclinB (Homo sapiens, UniProt P06493); experiment: Kinase activity assay, ADP-Glo (CDK1/CyclinB); assay type: biochemical; conditions: Table 18; read-out: CDK1/B IC50
T5 construct: purchased proqinase 0134-0135-1
T5 sequence (P06493 whole entry): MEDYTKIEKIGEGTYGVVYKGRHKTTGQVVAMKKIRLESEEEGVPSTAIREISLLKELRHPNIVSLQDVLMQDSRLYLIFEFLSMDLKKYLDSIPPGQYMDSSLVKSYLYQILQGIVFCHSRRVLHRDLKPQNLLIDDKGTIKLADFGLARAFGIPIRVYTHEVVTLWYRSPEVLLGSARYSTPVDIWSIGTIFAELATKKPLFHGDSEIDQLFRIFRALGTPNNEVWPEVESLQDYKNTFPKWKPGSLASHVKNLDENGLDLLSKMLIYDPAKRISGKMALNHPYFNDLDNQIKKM
T5 sequence (P14635 whole entry partner): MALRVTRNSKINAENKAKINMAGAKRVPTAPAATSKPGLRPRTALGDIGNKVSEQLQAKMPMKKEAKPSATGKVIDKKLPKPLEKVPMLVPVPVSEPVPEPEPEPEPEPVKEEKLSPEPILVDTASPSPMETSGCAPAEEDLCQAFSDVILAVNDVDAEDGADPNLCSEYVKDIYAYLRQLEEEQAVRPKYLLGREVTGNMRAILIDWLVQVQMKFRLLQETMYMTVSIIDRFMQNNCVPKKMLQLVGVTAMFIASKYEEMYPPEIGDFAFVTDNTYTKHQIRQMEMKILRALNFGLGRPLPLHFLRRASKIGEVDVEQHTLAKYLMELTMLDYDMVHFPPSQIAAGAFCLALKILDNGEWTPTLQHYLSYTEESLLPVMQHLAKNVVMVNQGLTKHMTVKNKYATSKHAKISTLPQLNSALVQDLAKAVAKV

T2 sequence (Q00534 whole entry): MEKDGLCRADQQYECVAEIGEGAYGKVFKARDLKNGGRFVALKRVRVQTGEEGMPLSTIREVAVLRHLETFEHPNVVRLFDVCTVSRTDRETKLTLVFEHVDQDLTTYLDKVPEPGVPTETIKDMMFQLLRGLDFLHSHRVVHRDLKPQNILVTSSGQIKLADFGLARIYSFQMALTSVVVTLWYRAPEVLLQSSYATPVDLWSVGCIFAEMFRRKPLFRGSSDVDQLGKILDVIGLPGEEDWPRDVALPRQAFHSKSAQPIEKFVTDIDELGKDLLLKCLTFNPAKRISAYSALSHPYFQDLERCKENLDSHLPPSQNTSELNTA
T2 sequence (P30281 whole entry partner): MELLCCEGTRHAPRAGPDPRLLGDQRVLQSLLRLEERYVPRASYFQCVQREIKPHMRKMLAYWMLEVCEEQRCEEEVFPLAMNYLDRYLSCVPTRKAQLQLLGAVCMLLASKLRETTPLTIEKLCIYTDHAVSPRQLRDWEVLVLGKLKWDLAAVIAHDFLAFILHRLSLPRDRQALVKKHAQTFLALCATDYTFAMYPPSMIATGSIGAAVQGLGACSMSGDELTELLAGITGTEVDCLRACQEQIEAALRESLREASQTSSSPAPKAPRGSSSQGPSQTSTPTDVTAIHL
CYP2C19, sequence (P33261 whole entry): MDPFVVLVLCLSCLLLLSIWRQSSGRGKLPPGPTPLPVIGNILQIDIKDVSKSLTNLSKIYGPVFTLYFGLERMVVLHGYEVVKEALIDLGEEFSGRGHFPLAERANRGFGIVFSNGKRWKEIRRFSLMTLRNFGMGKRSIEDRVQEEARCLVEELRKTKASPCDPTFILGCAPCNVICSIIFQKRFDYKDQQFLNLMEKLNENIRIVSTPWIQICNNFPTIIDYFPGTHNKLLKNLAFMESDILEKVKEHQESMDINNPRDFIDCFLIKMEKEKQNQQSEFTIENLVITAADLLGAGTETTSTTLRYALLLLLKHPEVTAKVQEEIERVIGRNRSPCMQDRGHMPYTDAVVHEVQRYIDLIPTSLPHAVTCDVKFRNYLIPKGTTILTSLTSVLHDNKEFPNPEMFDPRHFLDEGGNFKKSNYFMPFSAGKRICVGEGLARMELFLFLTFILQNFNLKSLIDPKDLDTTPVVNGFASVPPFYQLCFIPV
T4 sequence (P50750 whole entry, species assumed): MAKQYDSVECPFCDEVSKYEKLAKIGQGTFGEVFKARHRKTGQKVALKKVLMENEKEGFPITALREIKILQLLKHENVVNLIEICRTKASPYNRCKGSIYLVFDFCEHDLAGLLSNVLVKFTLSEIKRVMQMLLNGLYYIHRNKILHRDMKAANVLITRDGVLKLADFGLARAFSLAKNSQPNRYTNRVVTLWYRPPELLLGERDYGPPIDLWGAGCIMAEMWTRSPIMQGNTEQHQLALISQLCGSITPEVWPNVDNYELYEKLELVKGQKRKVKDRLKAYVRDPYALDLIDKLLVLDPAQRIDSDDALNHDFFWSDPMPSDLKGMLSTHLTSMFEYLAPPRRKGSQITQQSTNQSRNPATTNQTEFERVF
T4 sequence (O60563 whole entry partner, species assumed): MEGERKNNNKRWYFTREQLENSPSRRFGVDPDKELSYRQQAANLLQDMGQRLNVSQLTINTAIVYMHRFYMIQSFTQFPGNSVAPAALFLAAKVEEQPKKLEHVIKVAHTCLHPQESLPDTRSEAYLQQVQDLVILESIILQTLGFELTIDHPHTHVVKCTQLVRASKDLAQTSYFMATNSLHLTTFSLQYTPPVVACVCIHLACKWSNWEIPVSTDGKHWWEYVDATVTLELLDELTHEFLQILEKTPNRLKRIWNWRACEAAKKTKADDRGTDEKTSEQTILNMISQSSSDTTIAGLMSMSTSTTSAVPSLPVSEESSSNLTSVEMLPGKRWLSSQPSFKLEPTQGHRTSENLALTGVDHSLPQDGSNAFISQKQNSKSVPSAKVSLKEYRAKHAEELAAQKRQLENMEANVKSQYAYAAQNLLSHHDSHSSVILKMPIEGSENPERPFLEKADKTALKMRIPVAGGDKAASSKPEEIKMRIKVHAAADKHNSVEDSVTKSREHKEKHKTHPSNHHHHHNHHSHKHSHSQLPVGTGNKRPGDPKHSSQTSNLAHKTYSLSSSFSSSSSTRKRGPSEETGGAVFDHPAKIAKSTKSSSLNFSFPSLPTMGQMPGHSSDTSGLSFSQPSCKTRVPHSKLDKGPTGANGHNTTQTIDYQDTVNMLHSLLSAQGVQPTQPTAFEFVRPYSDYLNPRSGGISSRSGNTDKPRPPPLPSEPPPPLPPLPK
CYP2C9, sequence (P11712 whole entry): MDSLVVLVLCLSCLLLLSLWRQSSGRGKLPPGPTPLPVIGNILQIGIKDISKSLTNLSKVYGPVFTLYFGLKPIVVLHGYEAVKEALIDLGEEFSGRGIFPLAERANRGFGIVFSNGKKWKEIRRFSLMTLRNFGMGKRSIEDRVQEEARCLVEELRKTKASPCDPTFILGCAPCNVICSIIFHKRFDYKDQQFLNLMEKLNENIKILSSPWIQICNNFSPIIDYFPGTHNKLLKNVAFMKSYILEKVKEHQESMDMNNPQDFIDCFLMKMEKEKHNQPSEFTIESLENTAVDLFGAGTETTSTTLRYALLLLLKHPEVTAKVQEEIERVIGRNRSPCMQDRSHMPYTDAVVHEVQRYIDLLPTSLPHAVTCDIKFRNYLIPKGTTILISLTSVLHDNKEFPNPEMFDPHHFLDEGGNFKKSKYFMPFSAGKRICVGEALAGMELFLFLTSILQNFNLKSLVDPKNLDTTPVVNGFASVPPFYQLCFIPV
CYP3A4, sequence (P08684 2-503): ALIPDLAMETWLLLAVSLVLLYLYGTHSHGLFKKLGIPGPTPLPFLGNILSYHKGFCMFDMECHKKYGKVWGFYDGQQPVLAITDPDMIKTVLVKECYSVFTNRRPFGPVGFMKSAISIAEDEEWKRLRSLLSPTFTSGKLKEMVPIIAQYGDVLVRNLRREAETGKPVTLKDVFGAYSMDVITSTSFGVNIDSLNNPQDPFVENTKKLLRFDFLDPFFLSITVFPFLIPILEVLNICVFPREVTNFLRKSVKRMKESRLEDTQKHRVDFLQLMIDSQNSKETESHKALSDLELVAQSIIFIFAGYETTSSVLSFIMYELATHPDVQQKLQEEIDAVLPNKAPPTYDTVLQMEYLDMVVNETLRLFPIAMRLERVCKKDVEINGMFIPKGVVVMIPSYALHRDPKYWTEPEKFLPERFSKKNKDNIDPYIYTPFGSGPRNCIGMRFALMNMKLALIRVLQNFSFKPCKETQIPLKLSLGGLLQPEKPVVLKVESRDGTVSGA
T3 sequence (P11802 whole entry): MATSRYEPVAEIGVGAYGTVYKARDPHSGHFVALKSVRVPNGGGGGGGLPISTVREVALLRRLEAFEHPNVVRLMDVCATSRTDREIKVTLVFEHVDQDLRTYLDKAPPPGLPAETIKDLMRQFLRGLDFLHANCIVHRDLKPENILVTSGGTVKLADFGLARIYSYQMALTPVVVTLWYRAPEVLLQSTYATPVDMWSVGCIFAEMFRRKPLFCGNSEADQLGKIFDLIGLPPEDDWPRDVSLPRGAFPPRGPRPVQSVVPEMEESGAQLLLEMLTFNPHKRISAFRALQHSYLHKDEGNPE
T3 sequence (P24385 whole entry partner): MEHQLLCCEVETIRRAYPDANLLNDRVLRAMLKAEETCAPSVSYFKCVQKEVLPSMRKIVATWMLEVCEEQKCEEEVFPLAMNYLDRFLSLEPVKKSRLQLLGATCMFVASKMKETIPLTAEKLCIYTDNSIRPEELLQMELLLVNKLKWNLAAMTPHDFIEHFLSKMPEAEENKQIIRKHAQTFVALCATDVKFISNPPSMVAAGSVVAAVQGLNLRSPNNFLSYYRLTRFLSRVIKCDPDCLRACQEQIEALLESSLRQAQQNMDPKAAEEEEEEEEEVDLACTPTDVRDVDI

IC50 (CYP1A2) | IC50 (CDK6/CyclinD3) | IC50 at 5 min (CYP3A4) | IC50 (CDK4/CyclinD1) | IC50 (CYP2C19) | IC50 (CDK9/CyclinT1) | IC50 (CYP2C9) | IC50 (CDK1/CyclinB) | Structure (SMILES)
> 30000 nM | 105 nM | > 30000 nM | 8.2 nM | > 30000 nM | > 1000 nM | > 30000 nM | > 1000 nM | C[C@H]1COc2c(-c3nc(N[C@@H]4CCOC[C@H]4O)ncc3Cl)cc(F)c3nc(C(C)(C)O)n1c23 (single isomer, unassigned) [Isomer 1 with a retention time of 2.078 min]
> 30000 nM | 228 nM | > 30000 nM | 14 nM | > 30000 nM | > 1000 nM | > 30000 nM | > 1000 nM | C[C@@H]1COc2c(-c3nc(N[C@@H]4CCOC[C@H]4O)ncc3Cl)cc(F)c3nc(C(C)(C)O)n1c23 (single isomer, unassigned) [Isomer 2 with a retention time of 1.887 min]
